# Measurements reported in a melting point compilation (Tetko et al.; mined from patent text by program, amines drawn as free bases though some values may be those of a salt).
row,SMILES,melting point [°C]
1,Fc1ccc(Nc2ncnc3ccc(-c4cccs4)cc23)cc1Cl,205 to 208
2,CCC(C#N)c1nsc2ccc(-n3c(=O)cc(C(F)(F)F)n(C)c3=O)cc12 (configuration not stated),107 to 109
3,CC(C)(C)OC(=O)N1CCC(Oc2c(F)cc3c(=O)c(C(=O)O)cn(C4CC4)c3c2F)C1 (configuration not stated),158 to 160
4,COc1ccccc1C(=O)CN1C(=O)C(NC(=O)Nc2cccc(-c3nnn[nH]3)c2)N=C(c2ccccc2F)c2cccc(C)c21 (configuration not stated),194 to 195
5,c1csc(-c2nc(COc3ccc(CCCn4ccnc4)cc3)cs2)c1,76 to 77
6,CC(=O)C1CCC2C3CCC4CC(O)C(Br)CC4(C)C3C(=O)CC12C (configuration not stated),172 to 173
7,Cc1csc(-c2cccnc2)n1,42 to 43
8,O=C(Cc1ccc(C(F)(F)F)cc1)c1ccccc1,143 to 144
9,CC(C)c1cc(C(=O)O)oc1C(C)C,105 to 106
10,Cc1ccc(S(=O)(=O)NCCCCOc2ccc(C#N)cc2)cc1,107 to 108
11,CS(=O)c1ccc(-c2coc3ccc(-c4nnc(N)o4)cc23)cc1 (configuration not stated),284 to 285
12,COc1ccc2c(Cl)c(C(=O)Cl)sc2c1Cl,174 to 175
13,COc1cccc(C2(Cl)C(=O)Nc3ccc(Cl)cc32)c1 (configuration not stated),170
14,CCN1CCC(O)(c2cccc(OC)c2)CC1,86.7 to 91.1
15,CN1C(=O)C(C(=O)Nc2ccccc2)c2cc3ccccc3cc2S1(=O)=O (configuration not stated),188 to 190
16,OC(CCN1CC=C(c2ccc(Cl)cc2)CC1)c1ccc(F)cc1 (configuration not stated),130 to 132
17,N#CCCNC(=O)c1cccc(-c2ccc3c(c2)N(Cc2cc(Cl)ccc2Cl)CC3)c1,152 to 153
18,Fc1ccc2[nH]cc(C3=CCC(N4CCC(Cc5ccccc5)CC4)CC3)c2c1 (configuration not stated),72 to 74
19,COc1ccc(C(=O)CC(SC(C)=O)C(=O)O)cc1 (configuration not stated),122 to 124
20,CCC(=O)C(CCCOc1ccc(OCCCc2c(CC)n[nH]c2CC)cc1)C(=O)CC,135 to 136

row,SMILES,melting point [°C]
1,COc1ccccc1Oc1c(OC)nn(C)c1NS(=O)(=O)c1ccc(C(C)(C)C)cc1,188
2,COC1=C(c2ccc(C)cc2C)C(=O)CCC1,122 to 123
3,C=CCOc1ccc(C(=O)C=Cc2cc(OC)cc(OC)c2)cc1,88.5 to 90
4,CSCC[C@H](N)C(=O)NC(=O)C(CSC(C)=O)Cc1ccccc1 (some centres not stated),119 to 121
5,c1cc(CSSc2nc3ccccc3s2)cc(CSSc2nc3ccccc3s2)c1,94 to 96
6,COc1cc(Nc2nccc(-c3cccc(O)c3)n2)cc(OC)c1OC,191 to 192
7,COc1ccc(-c2ccc(C(=O)Nc3ccc4cc(CN5CCCC5)cnc4c3C)cc2)cc1,190 to 192
8,CNC(=O)c1ccc(-c2ccc(NC(=O)NCc3cccnc3)cc2)nc1Nc1ccccc1,234 to 236
9,CC12CC3(C)CC(CO)(C1)CC(CO)(C2)C3,158 to 161
10,CN(CCC(Oc1ccc(S(=O)(=O)c2ccccc2)cc1)c1ccccc1)CC(=O)O (configuration not stated),95 to 100
11,CCCOc1ccc([N+](=O)[O-])cc1[N+](=O)[O-],84 to 86
12,O=C(NCCN1CCN(c2cccc(Cl)c2)CC1)NC12CC3CC(CC(C3)C1)C2,136 to 137
13,Cc1cc(C)nc(NC(=O)NS(=O)(=O)c2ccccc2C(F)F)n1,190 to 195
14,O=C1NC(=O)C(Cc2ccccc2)N1 (configuration not stated),187 to 189
15,COCCOc1ccc(Sc2c(O)c3c(=O)n(-c4ccccc4)c4ccccc4c3oc2=O)cc1,144 to 146
16,COC(=O)[C@H](O)[C@@H](N)c1ccc(F)cc1,105
17,C=Nn1nc(NC)n(OCC)c1=O,169
18,CC(C)OC(=O)N1CCC(NC(=O)N2CCn3c(c(C(N)=O)c(C#N)c3C3CCOCC3)C2)CC1,124 to 126
19,O=C(Nc1cccc(C2CN3CCSC3=N2)c1)c1ccc(Cl)nc1 (configuration not stated),135 to 138
20,CCOC(=O)c1cccc(-c2nc(-c3ccc(OCC)cc3)cs2)c1,108 to 110

row,SMILES,melting point [°C]
1,CCCCCCCNC(=NC#N)Nc1cccnc1,90 to 91
2,N#Cc1ccc2c(c1)S(=O)(=O)NCN2C1CC1,259 to 261
3,Clc1ccc(-c2cn([C@H]3CN4CCC3CC4)nn2)cc1Cl,108
4,NS(=O)(=O)c1cc(F)c(C(F)(F)F)cc1NC(=O)c1ccccc1,223
5,O=C1CNc2ccc(S(=O)(=O)Oc3ccccc3)cc2N1,253 to 254
6,Cc1ccc(-c2ccc(C(=O)Nc3ccc4cc(CN5CCCC5)cnc4c3C)cc2F)cc1,193 to 194
7,CCCCNc1cc(C=NO)cc(S(N)(=O)=O)c1Oc1ccccc1,226 to 228
8,OCCN1CCN(c2ccc(Nc3ncc4ccc(-c5cccnc5)n4n3)cc2)CC1,189 to 190
9,Cc1cn(C2CCCCC2)c(=O)nc1N,205 to 207
10,Cc1nc2c3c(ccc2n1C)C(=O)N1C(=O)C(C)(C(C)C)N=C31 (configuration not stated),258 to 263
11,CCCOc1ccc(COCC)cc1-c1nc2c(CCC)nn(C)c2c(=O)[nH]1,89 to 90
12,CCCCOc1ccc(-c2ncc(C#N)c(Cl)n2)cc1,170
13,COc1cc(Nc2nccc(-c3ccc(C#N)cc3)n2)cc(OC)c1OC,183
14,CN(C)C(=S)n1c(SC(F)(F)C(F)F)nc(-c2ccccc2)c1-c1ccccc1,133 to 134
15,O=C(O)CCCC=C1CCCCCCCCCCC1,70 to 72
16,CC(C)C(c1cncnc1C(F)(F)F)N(C)C(=O)Cc1ccccn1 (configuration not stated),99 to 100
17,CCN(CC)c1ccc(-c2ncccc2S(=O)(=O)Nc2ncc(C)nc2OC)cc1,115 to 117
18,COC(=O)C(N)=Cc1ccc(OCC(O)CNC(C)C)c(Cl)c1 (configuration not stated),122 to 123
19,CN(C)c1ccccc1CC(=O)N1C[C@@H]2SCCC(c3ccccc3)(c3ccccc3)[C@@H]2C1 (racemic),163

# Continued, values first:
row,melting point [°C],SMILES
1,260,CCCC1=C(C#N)C(c2ccccc2Cl)c2c(n[nH]c2C)N1 (configuration not stated)
2,118 to 120,CNC(=O)c1ccc(OCC(O)CNC(C)C)nc1 (configuration not stated)
3,100,O[C@@H]1[C@H](O)[C@H](O)CO[C@H]1n1c(Br)nc2ccc(Cl)cc21
4,189 to 191,Cn1cc(CCN2C(=O)c3ccccc3C2=O)c2cc(CNC=O)ccc21
5,140 to 141,Cc1c(NC(=O)c2ccc(OC[C@@H]3CCCO3)cc2)ccc2cc(CN3CCC(C)(O)CC3)n(C)c12
6,190 to 191,CCc1nc2c(N)nc3ccc(OCc4ccccc4)cc3c2n1CCCCNC(=O)N1CCOCC1
7,112,Cc1ccc(S(=O)c2nc(Cl)c([N+](=O)[O-])s2)cc1 (configuration not stated)
8,185 to 187,CC(=NO)C(C)(C)NCC(CNC(C)(C)C(C)=NO)CC(O)CC1([N+](=O)[O-])N=CC=N1 (configuration not stated)
9,115,COC(=O)c1c(Oc2cccc(C)c2C)nn(C(=O)OC)c1C
10,190 to 192,CCOC(=O)c1cn(C2CC2)c2cc(C3=CCN(C(C)=O)CC3)c(F)cc2c1=O
11,190 to 192,Nc1ccc(-n2ccnc2S(=O)Cc2ccccc2N2CCOCC2)nc1 (configuration not stated)
12,238 to 240,CC1(C)C=C(c2ccccn2)c2cc(C(=O)O)ccc2O1
13,154 to 156,NCC1(O)C2CC3CC(C2)CC1C3 (configuration not stated)
14,118,CN(C1=CC(C)(C)Oc2ccc(OCCCC(F)(F)F)cc21)S(C)(=O)=O
15,74 to 76,CCCC(=NO)c1ccc(OCOC)cc1
16,157 to 159,COC(=O)c1ccc2oc(-c3ccc(OC)cc3)cc2c1
17,46,CCCCCCCCCCCCOc1ccccc1O
18,86 to 87,Cc1oc(-c2ccco2)nc1COc1ccc(Cn2cc(CCC(=O)O)c(-c3ccccc3)c2)cc1
19,163,CS(=O)(=O)OCC(Oc1ccc(F)c(C(N)=O)c1F)c1nc(-c2ccc(C(F)(F)F)cc2)c(Cl)o1 (configuration not stated)
20,232 to 233,O=C(Cc1ccc(OCc2ccccc2F)cc1)NC1(C(=O)O)Cc2ccc(-c3ccc(Cl)cc3)cc2C1 (configuration not stated)
21,74,CCCCOc1ccc(-c2nc(Cl)c(C=O)[nH]2)cc1
22,113 to 115,C=CCOc1ccc(OC2CCCCO2)c2c1CCC(=O)N2 (configuration not stated)

row,melting point [°C],SMILES
1,139 to 141,CS(=O)(=O)c1ccc(-c2cnn(Cc3ccc(Cl)s3)c(=O)c2-c2ccc(F)cc2)cc1
2,> 240,O=C(Nc1cccc(-c2ccnc3c(C(=O)c4cccs4)cnn23)c1)c1ccco1
3,> 250,O=C(O)c1ccc(=O)n(NC(=O)c2cccnc2)c1
4,92 to 97,COc1ccc(C(C)=O)cc1NC(=O)C(C)CCl (configuration not stated)
5,81 to 82,CCOC(=O)C1(C)Oc2c(OC)cccc2C1=O (configuration not stated)
6,205 to 206,Cc1ccc(C(=O)NC(NC(=S)Nc2ccccc2)C(F)(F)F)cc1 (configuration not stated)
7,120 to 124,CCCCCCCCc1ccc(CCC2(NC(=O)OC(C)(C)C)COC(C)(C)OC2)cc1
8,250,N#CN1CCC(C2(O)c3ccccc3CCc3ccc(F)cc32)CC1 (configuration not stated)
9,125 to 126,COc1cc2c(cc1OCc1ccccc1)CCN(C(C)=O)C2
10,114 to 115,CCOC(=O)c1ccc(C#CC(=O)Nc2ccccc2)cc1
11,195 to 200,CNCCCN(C)c1ccc2c(C(=O)NCC34CC5CC(CC(C5)C3)C4)c(Cl)ccc2n1
12,179 to 180,COc1nc(N)nc2c1ncn2/C=C1\CC1(CO)CO
13,69 to 70,CCOC(=O)CNCc1c(N)ccc(N2CCCC2)c1Cl
14,112 to 115,COc1ccccc1-c1nn(-c2ccccc2)c(=O)o1
15,87 to 89,CCCCS(=O)(=O)N(C(=O)OC(C)(C)C)c1cc(OC[C@@H]2CO2)ccc1OCc1ccccc1
16,156 to 159,O=C(O)C1Sc2ccccc2-c2ccccc21 (configuration not stated)
17,262 to 265,Cn1cc(S(=O)(=O)Cl)c(=O)c2ccc(C(F)(F)F)cc21
18,208 to 210,CCN(CC)CCN1C(=O)Nc2ccccc2C1c1cccc(O)c1 (configuration not stated)
19,146 to 148,COc1cc2[nH]c(N(C)Cc3cccc(OCCO)c3)nc(=O)c2c(OC)c1OC
20,122,O=C(NCC1CCCO1)c1cccc(-c2ccc3c(c2)C(c2cc(Cl)ccc2Cl)CC3)c1 (configuration not stated)
21,94 to 95,CCOC(=O)C(=CN(C)C)C(=O)c1cc(F)c(Cl)cc1Cl
